{"source": "PubChem BioAssay AID1963860", "about": "(Molecular Pharmacology Branch, DTP, NCI, 2024);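 also: spheroids exposed to agents for 7 days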", "test_system": "CN0375-F725-PDC KRAS spheroid viability", "experiment": "Anticancer human tumor CN0375-F725-PDC patient-derived colon carcinoma cell line growth inhibition [KRAS2]", "conditions": "spheroids with HUVEC and MSC; for IC50: curve of first compound; for viability, T/C: stronger effect = lower value", "source_text": "Multicellular complex tumor spheroid response to RAS pathway inhibitors in combination with a targeted agents in patient-derived cell lines with oncogenic KRAS variants from multiple cancer types\nA high-throughput screen of multi-cell type tumor spheroids was designed to identify active combinations of targeted small molecules and KRAS pathway inhibitors. Complex spheroids include a stromal component modeled by human endothelial cells (HUVEC) and fibroblasts modeled by human mesenchymal stem cells (MSCs). The concentration ranges selected for each drug and investigational agent were based upon clinically achievable concentrations if the clinical Cmax of the agent was known.\nCompounds. The drugs and investigational agents: BI-3406 (NSC825286), BAY-293 (NSC824723), batoprotafib (TNO155; NSC825523), sotorasib (AMG 510; NSC818433), MRTX1257 (NSC819558), elimusertib (BAY 1895344; NSC800525), molibresib (GSK525762; NSC774829), temuterkib (LY3214996; NSC803410), venetoclax (NSC766270), alisertib (NSC759677), olaparib (NSC753686), talazoparib (NSC767125), erdafitinib (NSC781556), ipatasertib (NSC767898), cabozantinib (NSC761068), nintedanib (NSC756659), abemaciclib (NSC768073), docetaxel (NSC628503), trametinib (NSC758246), and sapanisertib (NSC764658) were obtained from the National Cancer Institute (NCI) Developmental Therapeutics Program Chemical Repository. The FDA-approved anticancer drug set is available from the Developmental Therapeutics Program. […] The stock solutions were prepared in dimethyl sulfoxide (DMSO, Sigma-Aldrich, St. Louis, MO, cat. D2650) at 800-fold the tested concentration and stored at -70 degrees C prior to their use. All drugs and investigational agents were tested over a range starting from a high concentration at or near the clinical Cmax and decreasing in half-log increments. If the clinical Cmax for an agent had not been determined, the highest concentration tested was 10 microM.\nCell Culture. All cells were maintained in an incubator at 37 degrees C and 5% CO2 with 95% humidity. The PDC lines were cultured according to standard operating procedures established by the NCI PDMR (https://pdmr.cancer.gov/sops/default.htm). Briefly, all PDCs were thawed and cultured in Matrigel-coated flasks prepared with a working solution of 1X Ham's F-12 nutrient mix, without supplementation (Invitrogen, Waltham, MA, cat. 11765054), 100 U/mL penicillin-streptomycin (Invitrogen, cat. 15140122), and 2.5% Matrigel (Corning Inc., Corning, NY, cat. 354248) for the first three passages. All PDCs were cultured in complete DMEM/F-12 media containing advanced DMEM/F-12 (Invitrogen, cat. 12634028), 4.9% defined fetal bovine serum, heat inactivated (HyClone Laboratories Inc., Logan, UT, cat. SH30070.03HI), 389 ng/mL hydrocortisone (Sigma-Aldrich, cat. H4001), 9.7 ng/mL human EGF recombinant protein (Invitrogen, cat. PHG0313), 23.4 microg/mL adenine (Sigma-Aldrich, cat. A2786), 97.3 U/mL penicillin-streptomycin (Invitrogen, cat. 15140122), 1.9 mM L-glutamine (Invitrogen, cat. 25030081), and 9.7 microM Y-27632 dihydrochloride (Tocris Bioscience, Bristol, United Kingdom, cat. 1254). The PDCs were cultured in complete DMEM/F12 media without 9.7 microM Y-27632 dihydrochloride for at least two passages prior to the screen. The established cell line HOP-62 was cultured in RPMI 1640 medium, HEPES (Invitrogen, cat. 22400105) with 10% defined fetal bovine serum (HyClone Laboratories Inc., cat. SH30070.03) and 2 mM L-glutamine (Invitrogen, cat. 25030081). The pooled donor HUVEC were cultured in endothelial cell growth medium 2 (PromoCell, Heidelberg, Germany, cat. C-22011) and the hMSC were cultured in mesenchymal stem cell growth medium 2 (PromoCell, cat. C-28009). For all experiments, HUVEC and hMSC were used at passages </=5, while the malignant cell lines were used at passages </=15. […]", "key": {"[1]": {"conditions": "second compound 0.1 µM, first compound 0.0316 µM"}, "[2]": {"conditions": "second compound 0.1 µM, first compound 0.1 µM"}, "[3]": {"conditions": "second compound 0.1 µM, first compound 0.316 µM"}, "[4]": {"conditions": "second compound 0.1 µM, first compound 1 µM"}, "[5]": {"conditions": "second compound 0.1 µM, first compound 3.16 µM"}, "[6]": {"conditions": "second compound 0.316 µM, first compound 0.0316 µM"}, "[7]": {"conditions": "second compound 0.316 µM, first compound 0.1 µM"}, "[8]": {"conditions": "second compound 0.316 µM, first compound 0.316 µM"}, "[9]": {"conditions": "second compound 0.316 µM, first compound 1 µM"}, "[10]": {"conditions": "second compound 0.316 µM, first compound 3.16 µM"}, "[11]": {"conditions": "second compound 1 µM, first compound 0.0316 µM"}, "[12]": {"conditions": "second compound 1 µM, first compound 0.1 µM"}, "[13]": {"conditions": "second compound 1 µM, first compound 0.316 µM"}, "[14]": {"conditions": "second compound 1 µM, first compound 1 µM"}, "[15]": {"conditions": "second compound 1 µM, first compound 3.16 µM"}, "[16]": {"conditions": "second compound 3.16 µM, first compound 0.0316 µM"}, "[17]": {"conditions": "second compound 3.16 µM, first compound 0.1 µM"}, "[18]": {"conditions": "second compound 3.16 µM, first compound 0.316 µM"}, "[19]": {"conditions": "second compound 3.16 µM, first compound 1 µM"}, "[20]": {"conditions": "second compound 3.16 µM, first compound 3.16 µM"}, "[21]": {"conditions": "second compound 10 µM, first compound 0.0316 µM"}, "[22]": {"conditions": "second compound 10 µM, first compound 0.1 µM"}, "[23]": {"conditions": "second compound 10 µM, first compound 0.316 µM"}, "[24]": {"conditions": "second compound 10 µM, first compound 1 µM"}, "[25]": {"conditions": "second compound 10 µM, first compound 3.16 µM"}}}
{"smiles": "CC(=O)OC12COC1CC(O)C1(C)C(=O)C(O)C3=C(C)C(OC(=O)C(O)C(NC(=O)OC(C)(C)C)c4ccccc4)CC(O)(C(OC(=O)c4ccccc4)C21)C3(C)C", "note": "(stereo not given) + COc1cc2nc(C)nc(NC(C)c3cc(N)cc(C(F)(F)F)c3)c2cc1OC1CCOC1", "values": [{"measurement": "IC50", "setting": "second compound 0.1 µM", "value": "> 3160", "unit": "nM"}, {"measurement": "IC50", "setting": "second compound 0.316 µM", "value": "> 3160", "unit": "nM"}, {"measurement": "IC50", "setting": "second compound 1 µM", "value": "> 3160", "unit": "nM"}, {"measurement": "IC50", "setting": "second compound 3.16 µM", "value": "> 3160", "unit": "nM"}, {"measurement": "IC50", "setting": "second compound 10 µM", "value": 1080, "unit": "nM"}, {"measurement": "viability, T/C", "setting": "second compound 0.1 µM, first compound 0.01 µM", "value": 99.6, "unit": "%"}, {"measurement": "viability, T/C", "setting": "[1]", "value": 96.2, "unit": "%"}, {"measurement": "viability, T/C", "setting": "[2]", "value": 87.8, "unit": "%"}, {"measurement": "viability, T/C", "setting": "[3]", "value": 84.4, "unit": "%"}, {"measurement": "viability, T/C", "setting": "[4]", "value": 80.5, "unit": "%"}, {"measurement": "viability, T/C", "setting": "[5]", "value": 72.7, "unit": "%"}, {"measurement": "viability, T/C", "setting": "second compound 0.316 µM, first compound 0.01 µM", "value": 91, "unit": "%"}, {"measurement": "viability, T/C", "setting": "[6]", "value": 91.8, "unit": "%"}, {"measurement": "viability, T/C", "setting": "[7]", "value": 83.6, "unit": "%"}, {"measurement": "viability, T/C", "setting": "[8]", "value": 80, "unit": "%"}, {"measurement": "viability, T/C", "setting": "[9]", "value": 74.9, "unit": "%"}, {"measurement": "viability, T/C", "setting": "[10]", "value": 69.5, "unit": "%"}, {"measurement": "viability, T/C", "setting": "second compound 1 µM, first compound 0.01 µM", "value": 89.8, "unit": "%"}, {"measurement": "viability, T/C", "setting": "[11]", "value": 101, "unit": "%"}, {"measurement": "viability, T/C", "setting": "[12]", "value": 87.8, "unit": "%"}, {"measurement": "viability, T/C", "setting": "[13]", "value": 82.7, "unit": "%"}, {"measurement": "viability, T/C", "setting": "[14]", "value": 80.4, "unit": "%"}, {"measurement": "viability, T/C", "setting": "[15]", "value": 71.4, "unit": "%"}, {"measurement": "viability, T/C", "setting": "second compound 3.16 µM, first compound 0.01 µM", "value": 77.7, "unit": "%"}, {"measurement": "viability, T/C", "setting": "[16]", "value": 70.6, "unit": "%"}, {"measurement": "viability, T/C", "setting": "[17]", "value": 75.1, "unit": "%"}, {"measurement": "viability, T/C", "setting": "[18]", "value": 63.4, "unit": "%"}, {"measurement": "viability, T/C", "setting": "[19]", "value": 71.1, "unit": "%"}, {"measurement": "viability, T/C", "setting": "[20]", "value": 63.6, "unit": "%"}, {"measurement": "viability, T/C", "setting": "second compound 10 µM, first compound 0.01 µM", "value": 68.3, "unit": "%"}, {"measurement": "viability, T/C", "setting": "[21]", "value": 65.6, "unit": "%"}, {"measurement": "viability, T/C", "setting": "[22]", "value": 64.6, "unit": "%"}, {"measurement": "viability, T/C", "setting": "[23]", "value": 52.6, "unit": "%"}, {"measurement": "viability, T/C", "setting": "[24]", "value": 54.9, "unit": "%"}, {"measurement": "viability, T/C", "setting": "[25]", "value": 39.9, "unit": "%"}]}
{"smiles": "CC(C)NCC(C(=O)N1CCN(c2ncnc3c2C(C)CC3O)CC1)c1ccc(Cl)cc1", "note": "(stereo not given) + CNCc1ccccc1-c1csc(C(C)Nc2nc(C)nc3cc(OC)c(OC)cc23)c1", "values": [{"measurement": "IC50", "setting": "second compound 0.1 µM", "value": "> 10000", "unit": "nM"}, {"measurement": "IC50", "setting": "second compound 0.316 µM", "value": "> 10000", "unit": "nM"}, {"measurement": "IC50", "setting": "second compound 1 µM", "value": 370, "unit": "nM"}, {"measurement": "IC50", "setting": "second compound 3.16 µM", "value": "< 31.6", "unit": "nM"}, {"measurement": "IC50", "setting": "second compound 10 µM", "value": "< 31.6", "unit": "nM"}, {"measurement": "viability, T/C", "setting": "[1]", "value": 107, "unit": "%"}, {"measurement": "viability, T/C", "setting": "[2]", "value": 103, "unit": "%"}, {"measurement": "viability, T/C", "setting": "[3]", "value": 93.1, "unit": "%"}, {"measurement": "viability, T/C", "setting": "[4]", "value": 82.6, "unit": "%"}, {"measurement": "viability, T/C", "setting": "[5]", "value": 89.5, "unit": "%"}, {"measurement": "viability, T/C", "setting": "second compound 0.1 µM, first compound 10 µM", "value": 78.7, "unit": "%"}, {"measurement": "viability, T/C", "setting": "[6]", "value": 99.4, "unit": "%"}, {"measurement": "viability, T/C", "setting": "[7]", "value": 98.2, "unit": "%"}, {"measurement": "viability, T/C", "setting": "[8]", "value": 88.5, "unit": "%"}, {"measurement": "viability, T/C", "setting": "[9]", "value": 85.2, "unit": "%"}, {"measurement": "viability, T/C", "setting": "[10]", "value": 80, "unit": "%"}, {"measurement": "viability, T/C", "setting": "second compound 0.316 µM, first compound 10 µM", "value": 61.8, "unit": "%"}, {"measurement": "viability, T/C", "setting": "[11]", "value": 56.6, "unit": "%"}, {"measurement": "viability, T/C", "setting": "[12]", "value": 57.2, "unit": "%"}, {"measurement": "viability, T/C", "setting": "[13]", "value": 48.4, "unit": "%"}, {"measurement": "viability, T/C", "setting": "[14]", "value": 45.2, "unit": "%"}, {"measurement": "viability, T/C", "setting": "[15]", "value": 30.1, "unit": "%"}, {"measurement": "viability, T/C", "setting": "second compound 1 µM, first compound 10 µM", "value": 16, "unit": "%"}, {"measurement": "viability, T/C", "setting": "[16]", "value": 0.23, "unit": "%"}, {"measurement": "viability, T/C", "setting": "[17]", "value": 0.3, "unit": "%"}, {"measurement": "viability, T/C", "setting": "[18]", "value": 0.25, "unit": "%"}, {"measurement": "viability, T/C", "setting": "[19]", "value": 0.28, "unit": "%"}, {"measurement": "viability, T/C", "setting": "[20]", "value": 0.31, "unit": "%"}, {"measurement": "viability, T/C", "setting": "second compound 3.16 µM, first compound 10 µM", "value": 0.32, "unit": "%"}, {"measurement": "viability, T/C", "setting": "[21]", "value": 0.14, "unit": "%"}, {"measurement": "viability, T/C", "setting": "[22]", "value": 0.14, "unit": "%"}, {"measurement": "viability, T/C", "setting": "[23]", "value": 0.16, "unit": "%"}, {"measurement": "viability, T/C", "setting": "[24]", "value": 0.14, "unit": "%"}, {"measurement": "viability, T/C", "setting": "[25]", "value": 0.13, "unit": "%"}, {"measurement": "viability, T/C", "setting": "second compound 10 µM, first compound 10 µM", "value": 0.2, "unit": "%"}]}
